The subject of data set [1] is Lepeophtheirus pre-adult lice. Briefly: Feed trials: removal of pre-adult sea lice from fish fed medicated feed. To be noted: for Lice removed by 11 days after last day of treatment / Lice removed by 3 days after last day of treatment: Feed Trial Number One; for Lice removed by 2 days after last day of treatment / Lice removed by 9 days after last day of treatment: Feed Trial Number Two. It counts as in vivo. The protocol:
Empyreal™ 75, a processed corn protein concentrate, was mixed with imidacloprid to form a pre-mix. This pre-mix was then added to salmon feeds using fish oil to help coat it onto the pellets to prepare the medicated feed.
Medicated feed for fish was prepared based on the amount of feed that the fish were consuming each day to give a total dosage to different tanks of fish of 10, 20, 40, 60 and 100 milligrams of active ingredient (imidacloprid) over a 5 day period. Experiments were run using total dosages given over 5 days of feeding. A 5 day period was used to provide efficacy, convenience and safety.
Individual fish weights ranged from 62 to 188 grams.
Sea lice have a number of developmental stages on salmon of which two are pre-adults that do a lot of damage to the fish (e.g. Lepeophtheirus pre-adult I, Lepeophtheirus pre-adult II, Caligus pre-adult I, Caligus pre-adult II). Compositions were tested on the two pre-adult stages of Lepeophtheirus. The disclosed compositions are also useful for killing sea lice in the adult male and adult female and adult gravid female stage and the juvenile chalimus stages.

Data set [2] can be described thus: Tolerance of fish at five times the 20 mg/kg total dosage (mortalities, histology). It counts as in vivo, salmon.
Another data set relates to salmon lice. The settings on record: 100 ppm bath; in one hour; U.S. Pat. No. 5,504,081; cited from earlier work.
The subject of another data set is L. salmonis. To be noted: in-feed 1, 5 or 10 mg/kg/day for 7 days; WO 2014/064184; cited from earlier work.
[3] abbreviates: 8 mg/kg fish per day, total 40 mg/kg.
Where [4] appears, read: 12 mg/kg fish per day, total 60 mg/kg.
[5] abbreviates: 2 mg/kg fish per day, total 10 mg/kg.

We go through 2 molecules from patent US11260029B2, “Fish feed compositions containing a neonicotinoid for preventing and treating parasite infections” (priority 2014, dated 2022).

Values joined by “and” are separate entries in the source; they are usually repeats but may differ in a detail not shown here. Identical values can stand only once.

In turn, `O=[N+]([O-])NC1=NCCN1Cc1ccc(Cl)nc1` [Imidacloprid, (2E)-1-((6-chloropyridin-3-yl)methyl)-N-nitroimidazolidin-2-imine] gave a Lepeophtheirus lice removed in data set [1] (4 mg per kilogram per day for five days, three days into the five-day treatment) of 13.6%. Further, the “Lice removed by 11 days after last day of treatment” value in data set [1] (4 mg/kg fish per day, total 20 mg/kg, 16 days after treatment had started) was determined as 100%; in data set [1] (4 mg/kg fish per day, total 20 mg/kg, 16 days after treatment had started, listed as imidacloprid), 100%; in data set [1] (setting [3]), 97.84%^; in data set [1] (setting [4]), 100%. Further, the “Lice removed by 3 days after last day of treatment” value was 96.70% and 96.75% in data set [1] (4 mg/kg fish per day, total 20 mg/kg, eight days after the treatment had started); 96.75% in data set [1] (4 mg/kg fish per day, total 20 mg/kg, eight days after the treatment had started, listed as imidacloprid); 97.84% in data set [1] (setting [3]); 100% in data set [1] (setting [4]). In addition, the “Lice removed by 2 days after last day of treatment” value in data set [1] (setting [5]) is listed as 64.28%; in data set [1] (20 mg/kg fish per day, total 100 mg/kg) it was 88.37%. Also, the “Lice removed by 9 days after last day of treatment” value in data set [1] (setting [5]) stood at 77.67%; in data set [1] (2 mg/kg fish per day, total 10 mg/kg, listed as imidacloprid), 77.7%. Also, the removal of lice entry in data set [1] (higher dosages trialed, 40, 60 and 100 milligrams total) is “very effective removal of lice”. The “abnormalities on histological examination of organs” value in data set [2] (100 mg/kg total dosage) was “no abnormalities detectable”. For the same molecule, the mortalities entry in data set [2] (100 mg/kg total dosage (five times the 20 mg/kg total dosage)) is “no mortalities”. In addition, the lice killed in the data set on salmon lice is 100%.

On to `CN/C(=N\[N+](=O)[O-])NCc1cnc(Cl)s1` [clothianidin], for which the sea lice elimination entry in the data set on L. salmonis is reported as “full sea lice elimination”.
